# In ChEMBL document CHEMBL1140422, “A new bisintercalating anthracycline with picomolar DNA binding affinity” (J Med Chem, 2005):
# Tested on: Jurkat
# Experiment: Cytotoxicity against Jurkat T lymphocytes by MTT assay
# Format: functional, cell-based
# Conditions: Homo sapiens
SMILES,IC50,IC75
COc1cccc2c1C(=O)c1c(O)c3c(c(O)c1C2=O)C[C@@](O)(C(C)=O)C[C@@H]3O[C@H]1C[C@H](N)[C@H](O)[C@H](C)O1 [DAUNORUBICIN],82.6 nM,182 nM
COc1cccc2c1C(=O)c1c(O)c3c(c(O)c1C2=O)C[C@@](O)(C(C)=O)C[C@@H]3O[C@H]1C[C@H](NCc2cccc(CN[C@@H]3C[C@@H](O[C@H]4C[C@](O)(C(C)=O)Cc5c(O)c6c(c(O)c54)C(=O)c4c(OC)cccc4C6=O)O[C@H](C)[C@@H]3O)c2)[C@H](O)[C@H](C)O1,17 nM,53.5 nM
COc1cccc2c1C(=O)c1c(O)c3c(c(O)c1C2=O)C[C@@](O)(C(C)=O)C[C@@H]3O[C@H]1C[C@H](NCc2ccc(CN[C@@H]3C[C@@H](O[C@H]4C[C@](O)(C(C)=O)Cc5c(O)c6c(c(O)c54)C(=O)c4c(OC)cccc4C6=O)O[C@H](C)[C@@H]3O)cc2)[C@H](O)[C@H](C)O1,17.7 nM,60 nM
